Reference: ChEMBL document CHEMBL2203108, “Induction of microtubule-damage, mitotic arrest, Bcl-2 phosphorylation, Bak activation, and mitochondria-dependent caspase cascade is involved in human Jurkat T-cell apoptosis by aruncin B from Aruncus dioicus var. kamtschaticus” (Bioorg Med Chem Lett, 2012)
In brackets after ≈: the same amount, converted by molar mass. Activity calls are given as the source filed them. The rule behind the calls is not given here.

How the values were obtained:
Jurkat [1] = assay: Induction of apoptosis in human Jurkat T cells overexpressing Bcl2 assessed as cell viability at 30 ug/ml after 36 hrs by MTT assay; details: read-out: Activity
Jurkat [2] = assay: Induction of apoptosis in human Jurkat T cells overexpressing Neo assessed as cell viability at 30 ug/ml after 36 hrs by MTT assay; details: read-out: Activity
Jurkat [3] = assay: Cytotoxicity against human Jurkat T cells after 36 hrs by MTT assay
[4] = Cytotoxicity against human PHA-stimulated T cells after 36 hrs by MTT assay; details: T-cell
[5] = Cytotoxicity against human normal peripheral T cells after 36 hrs by MTT assay; details: T-cell
Jurkat [6] = assay: Cytotoxicity against human Jurkat T cells assessed as cell viability at 60 ug/ml after 36 hrs by MTT assay relative to control; details: read-out: Activity
Jurkat [7] = assay: Cytotoxicity against human Jurkat T cells assessed as cell viability at 30 ug/ml after 36 hrs by MTT assay relative to control; details: read-out: Activity
[8] = Cytotoxicity against human PHA-stimulated T cells assessed as cell viability at 60 ug/ml after 36 hrs by MTT assay relative to control; details: read-out: Activity
[9] = Cytotoxicity against human PHA-stimulated T cells assessed as cell viability at 30 ug/ml after 36 hrs by MTT assay relative to control; details: read-out: Activity
[10] = Cytotoxicity against human normal peripheral T cells assessed as cell viability at 60 ug/ml after 36 hrs by MTT assay relative to control
Jurkat [11] = assay: cells; details: Homo sapiens, 36 h, read-out: Activity
Description: Induction of apoptosis in human Jurkat T cells overexpressing Bcl2 assessed as cell viability at 15 ug/ml after 36 hrs by MTT assay

Jurkat [12] = assay: cells; details: Homo sapiens, 36 h, read-out: Activity; remark: listed apart in the source
Description: Induction of apoptosis in human Jurkat T cells overexpressing Bcl2 assessed as cell viability at 7.5 ug/ml after 36 hrs by MTT assay

Jurkat [13] = assay: cells; details: Homo sapiens, 36 h, read-out: Activity; remark: listed apart in the source
Description: Induction of apoptosis in human Jurkat T cells overexpressing Neo assessed as cell viability at 15 ug/ml after 36 hrs by MTT assay

Jurkat [14] = assay: cells; details: Homo sapiens, 36 h, read-out: Activity; remark: listed apart in the source
Description: Induction of apoptosis in human Jurkat T cells overexpressing Neo assessed as cell viability at 7.5 ug/ml after 36 hrs by MTT assay

Jurkat [15] = assay: cells; details: Homo sapiens, 36 h, read-out: Activity; remark: listed apart in the source
Description: Cytotoxicity against human Jurkat T cells assessed as cell viability at 15 ug/ml after 36 hrs by MTT assay relative to control

cells = details: Homo sapiens, T-cell, 36 h, read-out: Activity
Description: Cytotoxicity against human PHA-stimulated T cells assessed as cell viability at 15 ug/ml after 36 hrs by MTT assay relative to control

Jurkat [16] = assay: Induction of microtubule damage in human Jurkat T cells overexpressing Bcl2 after 36 hrs by immunostaining method; type: cell-based
Jurkat [17] = assay: Induction of microtubule damage in human Jurkat T cells overexpressing Neo after 36 hrs by immunostaining method; type: cell-based
Jurkat [18] = assay: Induction of apoptosis in human Jurkat T cells overexpressing Bcl2 assessed as cellular protrusions after 36 hrs by light microscopy; type: functional, cell-based
Jurkat [19] = assay: Induction of apoptosis in human Jurkat T cells overexpressing Neo assessed as cellular protrusions after 36 hrs by light microscopy; type: functional, cell-based
Jurkat [20] = assay: Induction of apoptosis in human Jurkat T cells overexpressing Bcl2 after 36 hrs by flow cytometry; type: functional, cell-based
Jurkat [21] = assay: Induction of apoptosis in human Jurkat T cells overexpressing Neo after 36 hrs by flow cytometry; type: functional, cell-based
Jurkat [22] = assay: Induction of cell cycle arrest in human Jurkat T cells overexpressing Bcl2 assessed as G2/M phase cells after 36 hrs by flow cytometry (reference value: 2.4%); type: functional
Jurkat [23] = assay: Induction of cell cycle arrest in human Jurkat T cells overexpressing Neo assessed as G2/M phase cells after 36 hrs by flow cytometry (reference value: 4.7%); type: functional

Compound: CCOC(C)(C)/C=C1/C=C(C(=O)O)C(O)CO1 (configuration not stated) [ARUNCIN B]
- viability at 30 µg/mL (Jurkat [1]): 61.2%
- viability at 30 µg/mL (Jurkat [2]): 44.9%
- IC50 (Jurkat [3]): 22 µg/mL (≈ 90.8 µM)
- IC50 [4]: 49 µg/mL (≈ 202 µM)
- IC50 [5]: > 60 µg/mL
- viability at 60 µg/mL (Jurkat [6]): 24.5%
- viability at 30 µg/mL (Jurkat [7]): 36.1%
- viability at 60 µg/mL [8]: 25%
- viability at 30 µg/mL [9]: 68.5%
- viability at 36 h, 60 ug/ml [10]: 63.8%
- viability at 15 µg/mL (Jurkat [11]): 71.5%
- viability at 7.5 µg/mL (Jurkat [12]): 81.5%
- viability at 15 µg/mL (Jurkat [13]): 57.4%
- viability at 7.5 µg/mL (Jurkat [14]): 82%
- viability at 15 µg/mL (Jurkat [15]): 67.7%
- viability at 15 µg/mL (cells): 85.9%

Compound: O=c1c(-c2ccc(O)cc2)coc2cc(O)cc(O)c12 [GENISTEIN]
- Activity (Jurkat [16]): inactive
- Activity (Jurkat [17]): inactive
- Activity (Jurkat [18]): inactive
- Activity (Jurkat [19]): inactive
- Activity (Jurkat [20]): inactive
- Activity (Jurkat [21]): Active
- Activity (Jurkat [22]): 6.7%
- Activity (Jurkat [23]): 35%

Compound: COC(=O)Nc1nc2cc(C(=O)c3cccs3)ccc2[nH]1 [NOCODAZOLE]
- Activity (Jurkat [16]): Active
- Activity (Jurkat [17]): Active
- Activity (Jurkat [18]): Active
- Activity (Jurkat [19]): Active
- Activity (Jurkat [20]): inactive
- Activity (Jurkat [21]): Active
- Activity (Jurkat [22]): 5.6%
- Activity (Jurkat [23]): 40.3%
